“Also recorded” adds a separate entry of the source.
What was measured:
[1] = tested on: Escherichia coli strain K-12 MG1655; test: Time-kill experiments (antibiotic lethality with biochemical supplementation); conditions: for ciprofloxacin (CIP) lethality / gentamicin (GENT) lethality / ampicillin (AMP) lethality: time-kill, with vs without the added substance; for ciprofloxacin (CIP) lethality: 16 ng/mL CIP; for gentamicin (GENT) lethality: 48 ng/mL GENT (minimal medium); for ampicillin (AMP) lethality: 4 μg/mL AMP; for antibiotic lethality: supplementation in wildtype cells, tested antibiotics AMP, CIP and GENT
E. coli cells [2] = test: Oxygen consumption rate quantification (Seahorse XFe96 Extracellular Flux Analyzer); type: cell-based, Escherichia coli; conditions: for cellular oxygen consumption rate (OCR) following antibiotic treatment: antibiotic alone, in contrast to control conditions; for cellular OCR under antibiotic treatment: 1 mM adenine or uracil supplementation, AMP, CIP or GENT treatment
E. coli cells [3] = conditions: E. coli cells treated with the antibiotic; cited from earlier work
E. coli cells [4] = test: Intracellular metabolite quantification by LC-MS/MS after adenine or uracil supplementation; type: cell-based, Escherichia coli
Procedure: Intracellular metabolites were quantified on an AB SCIEX Qtrap® 5500 mass spectrometer (AB SCIEX; Framingham, Mass.), as previously described (McCloskey et al., 2018), and processed using in house scripts. […] Samples were collected 1 hr after supplementation, and aliquots with biomass equivalents to 10 mL of cell culture at OD600=0.1 were subjected to metabolite extraction using a 40:40:20 mixture of acetonitrile, methanol and LC-MS grade water. Uniformly labeled ^13C-standards were generated by growing E. coli in uniformly labeled Glucose M9 minimal media in aerated shake flasks, as previously described (McCloskey et al., 2014). Calibration mixes of standards were split across several mixes, aliquoted, and lyophilized to dryness. All samples and calibrators were equally spiked with the same internal standards. Samples were quantified using […] mass spectrometry. Calibration curves were run before and after all biological and analytical replicates. Consistency of quantification between calibration curves was checked by running a Quality Control sample composed of all biological replicates. Values reported are derived from the average of the biological triplicates, analyzed in duplicate (n=6).
Metabolite concentrations were estimated from LC-MS/MS peak heights using previously generated calibration curves. […] Metabolites in blanks with a concentration greater than 80% of that found in the biological samples were similarly excluded. Missing values were imputed by bootstrapping using the R package Amelia II (v. 1.7.4, 1,000 imputations) (Honaker et al., 2011). Remaining missing values were approximated as ½ the lower limit of quantification for the metabolite normalized to the biomass of the sample. Intracellular metabolite concentrations were calculated based on an estimated cell density of 7·10^7 CFU/mL at OD600=0.1 (FIGS. 5A-5C) and an estimated cell volume of 1.3 fL for non-stressed exponential phase E. coli cells (Milo and Phillips, 2016).

E. coli = test: Unstressed growth in MOPS minimal medium; conditions: exogenous supplementation, no antibiotic
[5] = 1 mM supplementation, 1 hr, MOPS minimal medium

Row | Structure (SMILES) | ciprofloxacin (CIP) lethality [1] | gentamicin (GENT) lethality [1] | ampicillin (AMP) lethality [1] | cellular oxygen consumption rate (OCR) following antibiotic treatment (E. coli cells [2]) | antibiotic lethality [1] | other results
1 | Sc1ncnc2nc[nH]c12 [6-mercaptopurine] | decreased | increased | decreased | – | – | –
2 | CC1(C)S[C@@H]2[C@H](NC(=O)[C@H](N)c3ccccc3)C(=O)N2[C@H]1C(=O)O [AMP, ampicillin] | – | – | – | increased | – | intracellular purine nucleic acid bases (adenine, guanine) (E. coli cells [3]): depleted; intracellular pyrimidine nucleic acid bases (cytosine, thymine, uracil) (E. coli cells [3]): accumulate
3 | O=C(O)c1cn(C2CC2)c2cc(N3CCNCC3)c(F)cc2c1=O [CIP, ciprofloxacin] | – | – | – | increased | – | –
4 | CNC(C)C1CCC(N)C(OC2C(N)CC(N)C(OC3OCC(C)(O)C(NC)C3O)C2O)O1 (stereo not drawn) [GENT, gentamicin] | – | – | – | increased | – | –
5 | Nc1ncnc2nc[nH]c12 [adenine] | decreases | decreases | decreases | – | decreased | cellular OCR under antibiotic treatment (E. coli cells [2]): significantly repressed; NADH/NAD+ ratio (E. coli cells [4]; [5]): unchanged; NADPH/NADP+ ratio (E. coli cells [4]; [5]): modest decrease; adenylate energy charge (E. coli cells [4]; [5]): modest decrease; intracellular fumarate (E. coli cells [4]; [5]): decreased; intracellular succinate (E. coli cells [4]; [5]): increased; intracellular adenine nucleotides (E. coli cells [4]; exogenous adenine addition): accumulate; unstressed growth (E. coli): does not significantly alter
6 | Nc1cc[nH]c(=O)n1 [cytosine] | – | – | – | – | potentiated; also recorded: potentiating effect | –
7 | CCn1cc(C(=O)O)c(=O)c2cc(F)c(N3CCNCC3)cc21 [norfloxacin] | – | – | – | – | – | intracellular purine nucleic acid bases (adenine, guanine) (E. coli cells [3]): depleted; intracellular pyrimidine nucleic acid bases (cytosine, thymine, uracil) (E. coli cells [3]): accumulate
8 | COc1cc(Cc2cnc(N)nc2N)cc(OC)c1OC [trimethoprim] | decreases | increases | decreases | – | – | –
9 | O=c1cc[nH]c(=O)[nH]1 [uracil] | increases | increases | increases | – | potentiated; also recorded: potentiating effect | cellular OCR under antibiotic treatment (E. coli cells [2]): enhanced; unstressed growth (E. coli): does not significantly alter
10 | O=c1ccn([C@@H]2O[C@H](CO)[C@@H](O)[C@H]2O)c(=O)[nH]1 [uridine] | – | – | – | – | potentiating effect | –
